Like-named read-outs stand apart in the source and are kept apart here.
Key:
osteoblasts [1] = test: Assay of influences on osteoblasts: alkaline phosphatase (ALP) activity in cultured goldfish scales; assay type: cell-based; conditions: for ALP activity, amount of paranitrophenol produced: scales cultured at 15° C. for 6 hours, control 6.00-6.17 (per table)
Description: In accordance with the method described in N. Suzuki and A. Hattori, J. Pineal Res., 33, 253-258, 2002, influences of an indole derivative on bone cells were inspected. A female goldfish (body weight: about 30 g) was put under anesthesia with MS222 (ethyl 3-aminobenzoate, methane sulfonic acid salt) (Aldrich), and a desired number of scales were peeled off. The scales were washed twice in Eagle's minimum essential medium (ICN Biomedicals Inc.) comprising 1% antibiotics (a mixture of penicillin and streptomycin). Medium of the same type was introduced into each well of a 24-well plate in amounts of 1 ml, several scales were introduced to each well (8 scales in general), and 10^−4, 10^−6, and 10^−8 M indole derivatives were applied to separate wells. Subsequently, the scales were cultured at 15° C. for 6 hours. Also, a group to which no indole derivative had been added was prepared (a control group), and influences thereof on osteoclasts and osteoblasts were compared. Two control groups, i.e., a group for inspecting osteoclasts and a group for inspecting osteoblasts, were provided. Specifically, a total of 8 wells were provided for the control and 10^−4, 10^−6, and 10^−8 M indole derivatives (2 wells for each thereof). Accordingly, 3 types of indole derivatives can be inspected with the use of a 24-well plate. After the culture, medium was removed, 0.05 M cacodylate buffer (pH 7.4) containing 10% formalin was added, and the scales were immobilized. The scales were stored in 0.05 M cacodylate buffer at 4° C. until the measurement of enzyme activity was initiated. • (2) Assay of Influences Imposed on Osteoblasts, i.e., Assay of Alkaline Phosphatase (ALP) Activity The immobilized scales were removed from the plate, and the weights thereof were measured. Thereafter, the scales were introduced into a 96-well microplate, 200 μl of 100 mM tris-HCl buffer (pH 9.5) comprising 10 mM paranitrophenol phosphate (substrate), 1 mM magnesium chloride, and 0.1 mM zinc chloride was introduced into each well, the reaction was allowed to proceed at 25° C. for 1 hour, and an aqueous solution of 2N sodium hydroxide (50 μl) was added thereto in order to terminate the reaction. Thereafter, 150 μl of the solution after the reaction was transferred to the other microplate, and the amount of pNP generated by ALP was measured using a spectrophotometer (405 nm) to determine the activity.

osteoclasts [2] = test: Assay of influences on osteoclasts: tartaric acid-resistant acid phosphatase (TRAP) activity in cultured goldfish scales; assay type: cell-based; conditions: for TRAP activity, amount of paranitrophenol produced: scales cultured at 15° C. for 6 hours, control 3.43 ± 0.04
Description: In accordance with the method described in N. Suzuki and A. Hattori, J. Pineal Res., 33, 253-258, 2002, influences of an indole derivative on bone cells were inspected.
A female goldfish (body weight: about 30 g) was put under anesthesia with MS222 (ethyl 3-aminobenzoate, methane sulfonic acid salt) (Aldrich), and a desired number of scales were peeled off. The scales were washed twice in Eagle's minimum essential medium (ICN Biomedicals Inc.) comprising 1% antibiotics (a mixture of penicillin and streptomycin). Medium of the same type was introduced into each well of a 24-well plate in amounts of 1 ml, several scales were introduced to each well (8 scales in general), and 10^−4, 10^−6, and 10^−8 M indole derivatives were applied to separate wells. Subsequently, the scales were cultured at 15° C. for 6 hours. Also, a group to which no indole derivative had been added was prepared (a control group), and influences thereof on osteoclasts and osteoblasts were compared. Two control groups, i.e., a group for inspecting osteoclasts and a group for inspecting osteoblasts, were provided. Specifically, a total of 8 wells were provided for the control and 10^−4, 10^−6, and 10^−8 M indole derivatives (2 wells for each thereof). Accordingly, 3 types of indole derivatives can be inspected with the use of a 24-well plate.
After the culture, medium was removed, 0.05 M cacodylate buffer (pH 7.4) containing 10% formalin was added, and the scales were immobilized. The scales were stored in 0.05 M cacodylate buffer at 4° C. until the measurement of enzyme activity was initiated.
2-Bromomelatonin (a compound represented by formula (I) wherein X represents a bromine atom; R^1 represents a hydrogen atom; R^2 represents methyl; R^3, R^5 and R^6 each represent a hydrogen atom; and R^4 represents methyl), which was subjected to the test, was a known compound, and it was synthesized by the method described in M. Somei, Y. Fukui, M. Hasegawa, N. Oshikiri, and T. Hayashi, Heterocycles, 53, 1725-1736, 2000. • (1) Assay of Influences Imposed on Osteoclasts, i.e., Assay of Tartaric Acid-Resistant Acid Phosphatase (TRAP) Activity
The immobilized scales were removed from the plate, and the weights thereof were measured. Thereafter, the scales were introduced into a 96-well microplate, 200 μl of 100 mM acetate buffer containing 20 mM tartaric acid and 10 mM paranitrophenol phosphate (substrate) was introduced to each well, reaction was allowed to proceed at 25° C. for 1 hour, and an aqueous solution of 2N sodium hydroxide (50 μl) was then added in order to terminate the reaction. The solution after the reaction (150 μl) was transferred to the other microplate, and the amount of paranitrophenol (pNP) generated by TRAP was measured using a spectrophotometer (405 nm). The osteoclast activity was indicated in terms of the amount of paranitrophenol phosphate decomposed and that of pNP produced within 1 hour per mg of the scales.

osteoblasts [3] = conditions: reported in N. Suzuki and A. Hattori, J. Pineal Res., 33, 253-258, 2002; cited from earlier work
osteoclasts [4] = conditions: reported in N. Suzuki and A. Hattori, J. Pineal Res., 33, 253-258, 2002; cited from earlier work

Influence on osteoblasts (in words) (osteoblasts [1]; summary of FIG. 2A, 2B, Tables 2A to 2G) | Influence on osteoclasts (in words) (osteoclasts [2]; summary of FIG. 1A, 1B, Table 1) | melting point [°C] | SMILES | ALP activity, amount of paranitrophenol produced (osteoblasts [1]; indole derivative 10^−4 M) | ALP activity, amount of paranitrophenol produced (osteoblasts [1]; indole derivative 10^−6 M) | ALP activity, amount of paranitrophenol produced (osteoblasts [1]; indole derivative 10^−8 M) | TRAP activity, amount of paranitrophenol produced (osteoclasts [2]; indole derivative 10^−4 M) | TRAP activity, amount of paranitrophenol produced (osteoclasts [2]; indole derivative 10^−6 M) | TRAP activity, amount of paranitrophenol produced (osteoclasts [2]; indole derivative 10^−8 M) | Influence on osteoblasts (in words) (osteoblasts [3]) | Influence on osteoclasts (in words) (osteoclasts [4])
suppressively acts | suppressively acts |  | COc1ccc2[nH]cc(CCNC(C)=O)c2c1 [Melatonin, N-acetyl-5-methoxytryptamine, reference compound] | 5.19 ± 0.36 nmol/mg of scales/hr | 5.42 ± 0.25 nmol/mg of scales/hr | 5.45 ± 0.27 nmol/mg of scales/hr | 2.67 ± 0.11 nmol/mg of scales/hr | 2.69 ± 0.15 nmol/mg of scales/hr | 2.91 ± 0.13 nmol/mg of scales/hr | act suppressively | act suppressively
 |  | 218 to 219 | COc1c(Br)cc2c(c1Br)c(CCNC(C)=O)c(Br)n2Cc1ccccc1 [1-Benzyl-2,4,6-tribromomelatonin, N-acetyl-1-benzyl-2,4,6-tribromo-5-methoxyindole-3-ethanamine] | 7.77 ± 0.37 nmol/mg of scales/hr | 7.92 ± 0.55 nmol/mg of scales/hr | 8.44 ± 1.00 nmol/mg of scales/hr | 2.59 ± 0.24 nmol/mg of scales/hr | 2.83 ± 0.20 nmol/mg of scales/hr | 2.85 ± 0.20 nmol/mg of scales/hr |  | 
 |  |  | COc1c(Br)cc2[nH]c(Br)c(CCNC(C)=O)c2c1Br [2,4,6-Tribromomelatonin, N-acetyl-2,4,6-tribromo-5-methoxyindole-3-ethanamine] | 6.00 ± 0.38 nmol/mg of scales/hr | 6.61 ± 0.38 nmol/mg of scales/hr | 7.58 ± 0.70 nmol/mg of scales/hr | 2.93 ± 0.18 nmol/mg of scales/hr | 2.87 ± 0.13 nmol/mg of scales/hr | 2.88 ± 0.08 nmol/mg of scales/hr |  | 
 |  | 142 to 143 | C=CCn1c(Br)c(CCNC(C)=O)c2c(Br)c(OC)c(Br)cc21 [1-Allyl-2,4,6-tribromomelatonin, N-acetyl-1-allyl-2,4,6-tribromo-5-methoxyindole-3-ethanamine] | 6.44 ± 0.44 nmol/mg of scales/hr | 6.79 ± 0.63 nmol/mg of scales/hr | 8.30 ± 0.68 nmol/mg of scales/hr | 2.87 ± 0.10 nmol/mg of scales/hr | 2.89 ± 0.12 nmol/mg of scales/hr | 2.99 ± 0.13 nmol/mg of scales/hr |  | 
 |  |  | C#CCn1c(Br)c(CCNC(C)=O)c2c(Br)c(OC)c(Br)cc21 [2,4,6-Tribromo-1-propargylmelatonin, N-acetyl-2,4,6-tribromo-5-methoxy-1-propargylindole-3-ethanamine] | 7.55 ± 0.76 nmol/mg of scales/hr | 8.66 ± 0.47 nmol/mg of scales/hr | 7.07 ± 0.75 nmol/mg of scales/hr | 2.78 ± 0.13 nmol/mg of scales/hr | 2.82 ± 0.15 nmol/mg of scales/hr | 2.78 ± 0.15 nmol/mg of scales/hr |  | 
 |  | 215 to 216 | COc1c(Br)cc2c(c1Br)c(CCNC(C)=O)c(Br)n2S(=O)(=O)c1ccc(C)cc1 [2,4,6-tribromo-1-tosyl-melatonin, N-acetyl-2,4,6-tribromo-5-methoxy 1-tosylindole-3-ethanamine] |  |  |  |  |  |  |  | 
 |  |  | COc1c(Br)c(Br)c2[nH]c(Br)c(CCNC(C)=O)c2c1Br [2,4,6,7-Tetrabromomelatonin, 2,4,6,7-tetrabromomelatonin] | 6.12 ± 0.41 nmol/mg of scales/hr | 6.12 ± 0.50 nmol/mg of scales/hr | 7.90 ± 0.73 nmol/mg of scales/hr | 2.71 ± 0.17 nmol/mg of scales/hr | 2.83 ± 0.16 nmol/mg of scales/hr | 3.19 ± 0.14 nmol/mg of scales/hr |  | 
 |  |  | COc1ccc2[nH]c(Br)c(CCNC(C)=O)c2c1 [2-Bromomelatonin] | 5.72 ± 0.47 nmol/mg of scales/hr | 6.03 ± 0.66 nmol/mg of scales/hr | 7.41 ± 0.35 nmol/mg of scales/hr | 2.83 ± 0.23 nmol/mg of scales/hr | 2.62 ± 0.17 nmol/mg of scales/hr | 3.02 ± 0.23 nmol/mg of scales/hr |  | 

Reference: patent publication US20070197629A1, “Indole derivative and application thereof” (priority 2004, published 2007)
